Test results as given in EP1025226B1, “DNA ENCODING A HUMAN PROTON-GATED ION CHANNEL AND USES THEREOF” (McGill University, priority 1997, dated 1999).
Like-named read-outs stand apart in the source and are kept apart here.

Columns and labels:
[1] = biological target: T1, human non-inactivating proton-gated ion channel hASIC3 (homomeric channels), SEQ ID No. 2 (Homo sapiens, UniProt Q9UHC3); assay: Two-electrode voltage clamp of proton-induced currents in Xenopus oocytes expressing the channel; format: cell-based; conditions: for remaining activity at 100 µM: 100 µM amiloride, currents activated by pH 4.0, mean +/- SEM (n= 17); for inhibition at 100 µM: co-application of 100 micro M amiloride with pH 4.0, biphasic response, hASIC3 in Xenopus oocytes
T1 sequence (Q9UHC3 1-531): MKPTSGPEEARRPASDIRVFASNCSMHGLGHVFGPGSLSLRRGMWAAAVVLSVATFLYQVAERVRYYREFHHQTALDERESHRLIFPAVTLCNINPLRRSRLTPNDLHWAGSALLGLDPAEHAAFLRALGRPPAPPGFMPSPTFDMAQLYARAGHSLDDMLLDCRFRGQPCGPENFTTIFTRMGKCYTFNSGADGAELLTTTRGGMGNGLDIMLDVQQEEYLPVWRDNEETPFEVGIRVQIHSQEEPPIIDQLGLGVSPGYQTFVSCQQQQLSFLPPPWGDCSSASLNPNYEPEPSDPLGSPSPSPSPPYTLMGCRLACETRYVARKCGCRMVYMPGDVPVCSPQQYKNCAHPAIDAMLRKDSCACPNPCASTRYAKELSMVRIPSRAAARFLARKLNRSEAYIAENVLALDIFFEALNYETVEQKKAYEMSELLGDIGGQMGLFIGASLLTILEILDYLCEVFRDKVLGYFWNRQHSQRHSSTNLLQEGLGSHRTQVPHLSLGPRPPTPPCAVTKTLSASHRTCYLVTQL
Method: Oocytes surgically removed from adult Xenopus laevis were treated for 2 h at room temperature with type II collagenase (Gibco-BRL) in Barth's solution under constant agitation. Selected oocytes at stage IV-V were defolliculated manually before nuclear micro-injections (Bertrand et al., 1991) of 5 ng of hASlC3 in pcDNA3 vector. After 2-4 days of expression at 19^-C in Barth's solution containing 50Êg/ml gentamycin, currents were recorded in the two-electrode voltage clamp configuration using an OC-725B amplifier (Warner Instruments). Whole cell currents were acquired and digitized at 500 Hz on a Macintosh IIci computer with an A/D NB-MIO16XL interface (National Instruments) then recorded traces were post-filtered at 100 Hz in Axograph (Axon Instruments). Agonist, amiloride and wash solutions were prepared in a modified Ringer's solution containing 115 mM NaCl, 2.5 mM KCI, 1.8 mM CaCl2 in 5-20 mM HEPES (Sigma) buffer adjusted with NaOH or HCl at pH 2 to 8 and applied on oocytes by constant perfusion (10-12 ml/min) at room temperature. Mean values ± SEM corresponded to measurements from a minimum of 5 oocytes.

[2] = biological target: hASIC3 (human non-inactivating amiloride-sensitive proton-gated ion channel subunit) (human); assay: cell-based or functional assay
[3] = biological target: rat P2x2 (ATP-gated ion channel subunit) (rat) (UniProt P49653); assay: cell-based or functional assay
Chain of rat P2x2 (ATP-gated ion channel subunit) (rat) (P49653 whole entry): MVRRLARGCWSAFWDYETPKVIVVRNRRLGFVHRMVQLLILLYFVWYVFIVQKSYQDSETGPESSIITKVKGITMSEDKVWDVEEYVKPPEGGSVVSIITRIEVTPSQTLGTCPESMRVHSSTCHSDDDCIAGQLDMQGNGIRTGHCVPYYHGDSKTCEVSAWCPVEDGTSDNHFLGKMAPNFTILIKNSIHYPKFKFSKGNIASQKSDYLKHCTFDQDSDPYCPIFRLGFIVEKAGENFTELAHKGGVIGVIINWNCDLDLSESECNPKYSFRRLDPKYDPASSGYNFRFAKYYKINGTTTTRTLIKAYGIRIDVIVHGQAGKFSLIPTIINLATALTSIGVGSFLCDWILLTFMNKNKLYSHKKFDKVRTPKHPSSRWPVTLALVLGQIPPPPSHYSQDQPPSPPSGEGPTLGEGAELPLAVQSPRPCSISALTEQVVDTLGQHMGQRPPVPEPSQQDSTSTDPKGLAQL

| Molecule | remaining activity at 100 µM ([1]; read-out: residual peak currents during amiloride application, fast component, expressed as percent of controls) | remaining activity at 100 µM ([1]; read-out: residual peak currents during amiloride application, sustained component, expressed as percent of controls) | inhibition at 100 µM ([1]; read-out: blockade of the fast current by amiloride) | inhibition at 100 µM ([1]; read-out: blockade of the slow current by amiloride) | non-inactivating cationic current induced by strong acid in Xenopus oocytes injected with the hASIC3 clone alone [2] | inward currents in Xenopus oocytes coinjected with hASIC3 and P2x2 (two-electrode voltage clamp), activating pH [3] | non-inactivating cation current induced by weak acid in Xenopus oocytes coinjected with hASIC3 clone and rat P2x2 clone [3] |
| --- | --- | --- | --- | --- | --- | --- | --- |
| N=C(N)NC(=O)c1nc(Cl)c(N)nc1N [amiloride] | 37.2 ± 6.4% | 72 ± 3.8% | 62.8 ± 6.5% | 28.7 ± 4.6% | – | – | – |
| hASIC3 (human non-inactivating amiloride-sensitive proton-gated ion channel subunit) | – | – | – | – | 4 pH | 6.5 pH | 6.5 pH |
